From ChEMBL document CHEMBL5053529 (J Med Chem, 2021)
Values after ≈ are worked out from the molar mass of the structure shown.

How the values were obtained:
[1] = Clearance in human liver microsomes incubated up to 80 mins by LC-MS/MS analysis; type: ADME, Microsome; conditions: 1.333 h
[2] = Clearance in rat liver microsomes incubated up to 80 mins by LC-MS/MS analysis; type: ADME, Microsome; conditions: 1.333 h
[3] = Clearance in mouse liver microsomes incubated up to 80 mins by LC-MS/MS analysis; type: ADME, Microsome; conditions: 1.333 h
[4] = AUC (0 to infinity) in Sprague-Dawley rat at 6 mg/kg, po; type: ADME, organism-based; parameters: time infinity, dose 6 mg/kg, route po; conditions: in vivo
[5] = AUC (0 to infinity) in C57BL/6 mouse at 6 mg/kg, po; type: ADME, organism-based; parameters: time infinity, dose 6 mg/kg, route po; conditions: in vivo
[6] = AUC (0 to infinity) in Beagle dog at 0.3 mg/kg, po; type: ADME, organism-based, Canis lupus familiaris; parameters: time infinity, dose 0.3 mg/kg, route po; conditions: in vivo
[7] = Cmax in Sprague-Dawley rat at 6 mg/kg, po; type: ADME, organism-based; parameters: dose 6 mg/kg, route po; conditions: in vivo
[8] = Cmax in C57BL/6 mouse at 6 mg/kg, po; type: ADME, organism-based; parameters: dose 6 mg/kg, route po; conditions: in vivo
[9] = Cmax in Beagle dog at 0.3 mg/kg, po; type: ADME, organism-based, Canis lupus familiaris; parameters: dose 0.3 mg/kg, route po; conditions: in vivo
[10] = Oral bioavailability in Sprague-Dawley rat at 6 mg/kg; type: ADME, organism-based; conditions: in vivo
[11] = Oral bioavailability in C57BL/6 mouse at 6 mg/kg; type: ADME, organism-based; conditions: in vivo
[12] = Oral bioavailability in Beagle dog at 0.3 mg/kg; type: ADME, organism-based, Canis lupus familiaris; conditions: in vivo
[13] = Hepatic clearance in Sprague-Dawley rat at 6 mg/kg, po; type: ADME, organism-based; conditions: in vivo
[14] = Hepatic clearance in Beagle dog at 0.3 mg/kg, po; type: ADME, organism-based, Canis lupus familiaris; conditions: in vivo
[15] = Clearance in Beagle dog at 6 mg/kg, po; type: ADME, organism-based, Canis lupus familiaris; conditions: in vivo
[16] = Volume of distribution in steady state in Sprague-Dawley rat at 6 mg/kg, po; type: ADME, organism-based; conditions: in vivo
[17] = Volume of distribution in steady state in C57BL/6 mouse at 6 mg/kg, po; type: ADME, organism-based; conditions: in vivo
[18] = Volume of distribution in steady state in Beagle dog at 0.3 mg/kg, po; type: ADME, organism-based, Canis lupus familiaris; conditions: in vivo
[19] = Half life in Sprague-Dawley rat at 6 mg/kg, po; type: ADME, organism-based; conditions: in vivo
[20] = Half life in C57BL/6 mouse at 6 mg/kg, po; type: ADME, organism-based; conditions: in vivo
[21] = Half life in Beagle dog at 0.3 mg/kg, po; type: ADME, organism-based, Canis lupus familiaris; conditions: in vivo
[22] = Kinetic solubility of the compound at pH 7.4; type: physicochemical; conditions: buffer, read-out: Kinetic_solubility
[23] = Thermodynamic solubility of the compound at pH 1; type: physicochemical; conditions: buffer, read-out: Therm_solubility
[24] = Thermodynamic solubility of the compound at pH 6.8; type: physicochemical; conditions: buffer, read-out: Therm_solubility
[25] = Octanol/water partition coefficient, log P of the compound; type: physicochemical
[26] = Solubility of the compound at pH 6.8; type: physicochemical; conditions: buffer
[27] = Drug concentration in Sprague-Dawley rat blood at 3 umol/kg, po measured after 4 hrs by LC-MS/MS analysis; type: ADME, organism-based; conditions: dose 3 µmol/kg, read-out: Drug uptake
[28] = Drug concentration in Sprague-Dawley rat blood at 10 umol/kg, po measured after 4 hrs by LC-MS/MS analysis; type: ADME, organism-based; conditions: dose 10 µmol/kg, read-out: Drug uptake
[29] = Drug concentration in Sprague-Dawley rat blood at 100 umol/kg, po measured after 4 hrs by LC-MS/MS analysis; type: ADME, organism-based; conditions: dose 100 µmol/kg, read-out: Drug uptake
[30] = Drug concentration in Sprague-Dawley rat blood at 30 umol/kg, po measured after 4 hrs by LC-MS/MS analysis; type: ADME, organism-based; conditions: dose 30 µmol/kg, read-out: Drug uptake
[31] = Drug concentration in Sprague-Dawley rat brain at 3 umol/kg, po measured after 4 hrs by LC-MS/MS analysis; type: ADME, organism-based; conditions: dose 3 µmol/kg, read-out: Drug uptake
[32] = Drug concentration in Sprague-Dawley rat brain at 10 umol/kg, po measured after 4 hrs by LC-MS/MS analysis; type: ADME, organism-based; conditions: dose 10 µmol/kg, read-out: Drug uptake
[33] = Drug concentration in Sprague-Dawley rat brain at 100 umol/kg, po measured after 4 hrs by LC-MS/MS analysis; type: ADME, organism-based; conditions: dose 100 µmol/kg, read-out: Drug uptake
[34] = Drug concentration in Sprague-Dawley rat brain at 30 umol/kg, po measured after 4 hrs by LC-MS/MS analysis; type: ADME, organism-based; conditions: dose 30 µmol/kg, read-out: Drug uptake
[35] = Unbound drug concentration in Sprague-Dawley rat brain at 3 umol/kg, po measured after 4 hrs by LC-MS/MS analysis; type: ADME, organism-based; conditions: in vivo, dose 3 µmol/kg
[36] = Unbound drug concentration in Sprague-Dawley rat brain at 10 umol/kg, po measured after 4 hrs by LC-MS/MS analysis; type: ADME, organism-based; conditions: in vivo, dose 10 µmol/kg
[37] = Unbound drug concentration in Sprague-Dawley rat brain at 100 umol/kg, po measured after 4 hrs by LC-MS/MS analysis; type: ADME, organism-based; conditions: in vivo, dose 100 µmol/kg
[38] = Unbound drug concentration in Sprague-Dawley rat brain at 30 umol/kg, po measured after 4 hrs by LC-MS/MS analysis; type: ADME, organism-based; conditions: in vivo, dose 30 µmol/kg

## C[C@@]1(c2nc(NC(=O)c3ncc(C(F)(F)F)cc3Cl)ccc2F)CO[C@@](C)(C(F)(F)F)C(N)=N1
[1]
  CLH: 26 µL/min/mg
[2]
  CLH: 37 µL/min/mg
[3]
  CLH: 32 µL/min/mg
[4]
  AUC: 2.045 µM·h
[5]
  AUC: 1.16 µM·h
[6]
  AUC(0-inf): 7.75 µM·h
[7]
  Cmax: 146 nM
[8]
  Cmax: 82 nM
[9]
  Cmax: 257 nM
[10]
  bioavailability: 60%
[11]
  bioavailability: 48%
[12]
  bioavailability: 57%
[13]
  CLH: 37 mL/min/kg
[14]
  CLH: 3.3 mL/min/kg
[15]
  CL/F: 2 mL/min/kg
[16]
  Vdss: 6.9 L/kg
[17]
  Vdss: 6.9 L/kg
[18]
  Vdss: 3.9 L/kg
[19]
  half-life: 13.3 h
[20]
  half-life: 9.5 h
[21]
  half-life: 23.4 h
[22]
  solubility kinetic: 15 µg/mL (≈ 29.2 µM)
[23]
  solubility thermodynamic: > 1500 µg/mL
[24]
  solubility thermodynamic: 23 µg/mL (≈ 44.8 µM)
[25]
  logP: 4.3
[26]
  solubility: 13 µg/mL (≈ 25.3 µM)
[27]
  concentration at 4 h: 160 nM
[28]
  concentration at 4 h: 440 nM
[29]
  concentration at 4 h: 3430 nM
[30]
  concentration at 4 h: 1710 nM
[31]
  concentration at 4 h: 180 nM
[32]
  concentration at 4 h: 850 nM
[33]
  concentration at 4 h: 3600 nM
[34]
  concentration at 4 h: 3280 nM
[35]
  Drug uptake(free): 0.002 µM
[36]
  Drug uptake(free): 0.008 µM
[37]
  Drug uptake(free): 0.03 µM
[38]
  Drug uptake(free): 0.12 µM

## Cc1cc(C#N)cnc1C(=O)Nc1ccc(F)c([C@]2(C)CO[C@@](C)(C(F)(F)F)C(N)=N2)c1
[4]
  AUC: 0.973 µM·h
[7]
  Cmax: 128 nM
[13]
  CLH: 17 mL/min/kg
[16]
  Vdss: 9 L/kg
[19]
  half-life: 4.9 h

## COCCOc1cnc(C(=O)Nc2ccc(F)c([C@]3(C)CO[C@@](C)(C(F)(F)F)C(N)=N3)n2)c(N)n1
[2]
  CLH: 204 µL/min/mg
[3]
  CLH: 866 µL/min/mg
